Laboratory results reported in patent publication US5002931A, “GRF analogs VII” (The Salk Institute for Biological Studies, priority 1987, dated 1991).
Square brackets hold non-standard residues; d marks the D form. Ends that are not written are not given here. Peptide text beside a SMILES is read from it. NMeY = CN[C@@H](Cc1ccc(O)cc1)C(=O)O; Nle = CCCC[C@H](N)C(=O)O

tested on: cells of rat pituitary glands; test: in vitro assay of growth hormone release from cultured rat pituitary cells, GH measured by radioimmunoassay; assay type: cell-based; details: release of GH at equimolar concentrations, side-by-side with synthetic hpGRF(1-40)-OH standard = 100%; incubation 3 to 4 hours
Procedure: To determine the relative effectiveness of certain representative synthetic peptides to promote the release of growth hormone, in vitro assays are carried out using synthetic hpGRF(1-40)-OH as a standard in side-by-side comparison with equimolar concentrations of the representative analogs which have been synthesized. Cultures are used which include cells of rat pituitary glands removed some three to five days previously. Such cultures are considered optimal for the secretion of growth hormone and are used for the comparative testing, in the general manner described in Vale et al. Endocrinoloqy, 91, 562-572 (1972) and as more particularly described in Vale et al. Endocrinology, 112, 1553-1555 (1983). Incubation with the substance to be tested is carried out for 3 to 4 hours, and aliquots of the culture medium are removed and processed to measure their contents in immunoreactive GH(ir GH) by a well-characterized radioimmunoassay.

Row | Molecule | Comparison %
1 | CCCC[C@H](NC(=O)[C@@H](NC(=O)[C@H](CC(=O)O)NC(=O)[C@H](CCC(N)=O)NC(=O)[C@H](CC(C)C)NC(=O)[C@H](CC(C)C)NC(=O)[C@H](CCCCN)NC(=O)[C@H](CCCNC(=N)N)NC(=O)[C@H](C)NC(=O)[C@H](CO)NC(=O)[C@H](CC(C)C)NC(=O)[C@H](CCC(N)=O)NC(=O)[C@H](C)NC(=O)[C@H](CC(C)C)NC(=O)[C@@H](NC(=O)[C@H](CCCCN)NC(=O)[C@H](CCCNC(=N)N)NC(=O)[C@H](Cc1ccc(O)cc1)NC(=O)[C@H](CO)NC(=O)[C@H](CC(=O)O)NC(=O)[C@@H](NC(=O)[C@H](Cc1ccccc1)NC(=O)[C@@H](NC(=O)[C@H](C)NC(=O)[C@H](CC(=O)O)NC(=O)[C@H](C)NC(=O)[C@H](Cc1ccc(O)cc1)NC)[C@@H](C)CC)[C@@H](C)O)C(C)C)[C@@H](C)CC)C(=O)N[C@@H](CC(N)=O)C(=O)N[C@@H](CCCNC(=N)N)C(N)=O [[N^a MeTyr^1, Asp^8, Ala^15, Nle^27, Asn^28]-hGRF(1-29)-NH2] (H-[NMeY]ADAIFTDSYRKVLAQLSARKLLQDI[Nle]NR-NH2) | 192%
2 | CCCC[C@H](NC(=O)[C@@H](NC(=O)[C@H](CC(=O)O)NC(=O)[C@H](CCC(N)=O)NC(=O)[C@H](CC(C)C)NC(=O)[C@H](CC(C)C)NC(=O)[C@@H](CCCCN)NC(=O)[C@H](CCCNC(=N)N)NC(=O)[C@H](C)NC(=O)[C@H](CO)NC(=O)[C@H](CC(C)C)NC(=O)[C@H](CCC(N)=O)NC(=O)CNC(=O)[C@H](CC(C)C)NC(=O)[C@@H](NC(=O)[C@H](CCCCN)NC(=O)[C@H](CCCNC(=N)N)NC(=O)[C@H](Cc1ccc(O)cc1)NC(=O)[C@H](CO)NC(=O)[C@H](CC(N)=O)NC(=O)[C@@H](NC(=O)[C@H](Cc1ccccc1)NC(=O)[C@@H](NC(=O)[C@H](C)NC(=O)[C@H](CC(=O)O)NC(=O)[C@H](C)NC(=O)[C@H](Cc1ccc(O)cc1)NC)[C@@H](C)CC)[C@@H](C)O)C(C)C)[C@@H](C)CC)C(=O)N[C@@H](CO)C(=O)N[C@@H](CCCNC(=N)N)C(N)=O [[N^a MeTyr^1, D-Lys^21, Nle^27]-hGRF(1-29)-NH] | 172%
3 | CCCC[C@H](NC(=O)[C@@H](NC(=O)[C@H](CC(=O)O)NC(=O)[C@H](CCC(N)=O)NC(=O)[C@H](CC(C)C)NC(=O)[C@H](CC(C)C)NC(=O)[C@@H](CCCCN)NC(=O)[C@H](CCCNC(=N)N)NC(=O)[C@H](C)NC(=O)[C@H](CO)NC(=O)[C@H](CC(C)C)NC(=O)[C@H](CCC(N)=O)NC(=O)CNC(=O)[C@H](CC(C)C)NC(=O)[C@@H](NC(=O)[C@H](CCCCN)NC(=O)[C@H](CCCNC(=N)N)NC(=O)[C@@H](Cc1ccc(O)cc1)NC(=O)[C@H](CO)NC(=O)[C@H](CC(N)=O)NC(=O)[C@@H](NC(=O)[C@H](Cc1ccccc1)NC(=O)[C@@H](NC(=O)[C@H](C)NC(=O)[C@H](CC(=O)O)NC(=O)[C@H](C)NC(=O)[C@H](Cc1ccc(O)cc1)NC)[C@@H](C)CC)[C@@H](C)O)C(C)C)[C@@H](C)CC)C(=O)N[C@@H](CO)C(=O)N[C@@H](CCCNC(=N)N)C(N)=O [[N^a MeTyr^1, D-Tyr^10, D-Lys^21, Nle^27]-hGRF(1-29)-NH2] | 40%
4 | CCCC[C@H](NC(=O)[C@@H](NC(=O)[C@H](CC(=O)O)NC(=O)[C@H](CCC(N)=O)NC(=O)[C@H](CC(C)C)NC(=O)[C@H](CC(C)C)NC(=O)[C@H](CCCCN)NC(=O)[C@H](CCCNC(=N)N)NC(=O)[C@H](C)NC(=O)[C@H](CO)NC(=O)[C@H](CC(C)C)NC(=O)[C@H](CCC(N)=O)NC(=O)[C@H](C)NC(=O)[C@H](CC(C)C)NC(=O)[C@@H](NC(=O)[C@H](CCCCN)NC(=O)[C@H](CCCNC(=N)N)NC(=O)[C@H](Cc1ccc(O)cc1)NC(=O)[C@H](CO)NC(=O)[C@H](CCCCN)NC(=O)[C@@H](NC(=O)[C@H](Cc1ccccc1)NC(=O)[C@@H](NC(=O)[C@H](C)NC(=O)[C@H](CC(=O)O)NC(=O)[C@H](C)NC(=O)[C@H](Cc1ccc(O)cc1)NC)[C@@H](C)CC)[C@@H](C)O)C(C)C)[C@@H](C)CC)C(=O)N[C@@H](CC(N)=O)C(=O)N[C@@H](CCCNC(=N)N)C(N)=O [[N^a MeTyr^1, Lys^8, Ala^15, Nle^27, Asn^28]-hGRF(1-29)-NH2] (H-[NMeY]ADAIFTKSYRKVLAQLSARKLLQDI[Nle]NR-NH2) | 556%
5 | hGRF(1-40)-OH (YADAIFTNSYRKVLGQLSARKLLQDIMSRQQGESNQERGA-OH; UniProt P01286 32-71, looked up, fragment) [synthetic human pancreatic (tumor) GH releasing factor 1-40 free acid, used as standard in the assays, reference compound] | 100%
